Measurements from PubChem BioAssay AID1645868 (Buhrlage Lab, Dana-Farber Cancer Institute and Novartis …, 2021).
The source made the active and inactive calls.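 Rule for the calls: active = maximal percent inhibition of the deubiquitinase OTUD3 of at least 30% across the tested doses; inactive = the rest.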

Target: OTU domain-containing protein 3 (Homo sapiens) (UniProt Q5T2D3)
Assay: Validation of screening hits, potency titration, in vitro enzymatic, OTU domain-containing protein 3 DUB inhibitors (AID 1645868)
Details: purified OTUD3, ubiquitin-rhodamine cleavage fluorescence, 2 h

Chain of OTU domain-containing protein 3 (Homo sapiens) (Q5T2D3 whole entry, looked up, the tested form may be a part): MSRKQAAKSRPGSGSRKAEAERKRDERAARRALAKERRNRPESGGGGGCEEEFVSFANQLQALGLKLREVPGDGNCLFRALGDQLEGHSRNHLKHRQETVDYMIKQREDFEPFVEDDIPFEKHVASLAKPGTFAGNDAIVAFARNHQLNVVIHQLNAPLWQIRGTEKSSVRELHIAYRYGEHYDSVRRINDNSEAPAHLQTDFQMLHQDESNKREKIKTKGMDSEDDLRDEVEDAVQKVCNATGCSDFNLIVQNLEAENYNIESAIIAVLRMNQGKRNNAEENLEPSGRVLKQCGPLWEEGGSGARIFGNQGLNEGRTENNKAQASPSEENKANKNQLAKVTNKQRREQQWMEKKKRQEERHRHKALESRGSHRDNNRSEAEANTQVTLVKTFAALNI

| Compound | IC50 |
| --- | --- |
| CCCc1c(C(=O)O)c(O[C@H]2O[C@H](C)[C@@H](OC)[C@H](OC)[C@@H]2OC)cc2cc3c(c(O)c12)C(=O)c1c(O)cc(O[C@@H]2O[C@@H](C)[C@H](O[C@H]4O[C@H](C)[C@@H](OC)[C@H](OC)[C@@H]4O)[C@@H](OC)[C@H]2O)cc1C3=O | > 50 µM (inactive) |
| CCC(=O)N1c2ccccc2NC2=C(C(=O)CC(c3ccccc3OCc3ccccc3)C2)C1c1ccccc1 (configuration not stated) | 12.2 µM |
| Cc1cc2nc(Oc3cccc(Cl)c3)c3ccccc3n2n1 | > 50 µM (inactive) |
| Cn1c(=O)c2c(ncn2CC(=O)NC2CCCc3ccccc32)n(C)c1=O (configuration not stated) | > 50 µM (inactive) |
| COc1ccc(Cn2c(SCc3ccc(C(=O)NCCc4ccccc4)cc3)nc3ccncc32)cc1 | > 50 µM (inactive) |
| C=C1Nc2ccccc2C(=O)N1c1cccc(NC(=O)c2ccc(C)c(C)c2)c1 | > 50 µM (inactive) |
| Cc1ccc(OC(=O)c2cn(-c3ccccc3)nc2-c2cccnc2)cc1 | > 50 µM (inactive) |
| CC1OC1C(=O)[C@]1(O)[C@H](C)[C@@H](O)[C@@]23O[C@@]2([C@H](O)c2c(O)cccc2C3=O)[C@H]1O (some centres not stated) | > 50 µM (inactive) |
| CC(=O)c1cc2c(=O)c3c(C(=O)O)c(O)c(O)cc3oc2c(C(C)=O)c1-c1coc2cc(O)c(O)c(C(=O)O)c2c1=O | 0.369 µM |
| O=C(Nc1cccn(Cc2c(Cl)cccc2Cl)c1=O)c1ccccc1[N+](=O)[O-] | > 50 µM (inactive) |
| CCN(CC)C(=O)c1sc(NC(=O)/C=C/c2c(F)cccc2Cl)c(C#N)c1C | > 50 µM (inactive) |
| CC(C)N1CC2CN(C(=O)c3ccccc3)CCN2Cc2ccccc21 (configuration not stated) | > 50 µM (inactive) |
| CC1=C[C@H]2N(c3ccc(C)cc31)[C@H](C(=O)c1cccs1)[C@@H](C(=O)c1ccc(F)cc1)[C@]21C(=O)Nc2ccccc21 | > 50 µM (inactive) |
| O=S(=O)(Cc1nnc(-c2ccccc2C(F)(F)F)o1)c1ccc(Cl)cc1 | > 50 µM (inactive) |
| Cc1ccccc1NC(=O)CNc1nc(Nc2ccccc2)nc(Nc2ccccc2)n1 | 21 µM |
| COc1ccc(-c2cc3nc([C@H](C)NC(=O)Cc4ccccc4C)nn3cn2)cc1 | 6.66 µM |
| CC(C)(C)c1cc(CCC(=O)Nc2c3c(nc4c2CCC4)CCCC3)cc(C(C)(C)C)c1O | > 50 µM (inactive) |
| CCOC(=O)c1cc2c(ccn2C)n1CC(=O)N1CCc2ccccc2C1 | > 50 µM (inactive) |
| CCOc1ccc(NC(=O)CSc2nc3n[nH]c(C)c3c(=N)n2-c2ccc(OC)cc2)cc1 | > 50 µM (inactive) |
| COc1cc(OC)cc(-n2c(=O)c3sccc3n(CC(=O)Nc3ccc(C)cc3)c2=O)c1 | 21.1 µM |
| Cc1c(-c2nnc(-c3ccccc3Cl)o2)nnn1-c1ccccc1 | > 50 µM (inactive) |
| Cc1cccc(C(=O)N2CCc3cc(-c4nc(NC(=O)CNc5ccccc5)sc4C)ccc32)c1 | > 50 µM (inactive) |
| Cn1c2ccccc2c(=O)c2c(=O)n(Cc3ccccc3)c(-c3ccco3)nc21 | 1.55 µM |
| COc1ccc(S(=O)(=O)Nc2ccc(Nc3ccc(-n4cccn4)nn3)cc2)cc1 | > 50 µM (inactive) |

| Compound | IC50 |
| --- | --- |
| COc1cc(NC(=O)c2ccc3c(c2)OCO3)ccc1-c1cc2ccccc2oc1=O | > 50 µM (inactive) |
| COc1cccc2c1NC(=O)C21CCN(C(=O)Nc2cccc(C)c2)CC1 | 13.8 µM |
| Cc1ccccc1C(=O)OCCN1C(=O)c2cccc3c(N4CCOCC4)ccc(c23)C1=O | > 50 µM (inactive) |
| COc1ccc(NC(=O)Nc2cccc(-c3nnc(-c4ccccc4)o3)c2)cc1OC | 39.3 µM |
| COc1ccc(NC(=O)CC(=O)c2ccc([N+](=O)[O-])cc2)cc1S(=O)(=O)Nc1ccc(Br)cc1 | 28.7 µM |
| Cc1cccc(C(=O)N2CCc3cc(-c4nc(NC(=O)CN5CCc6ccccc6C5)sc4C)ccc32)c1 | > 50 µM (inactive) |
| COc1ccc(N(CC(=O)Nc2cccc(F)c2)S(=O)(=O)c2ccc(OC)c(OC)c2)cc1 | 22.4 µM |
| c1ccc(-c2ccc(NCc3ccc4c(c3)OCO4)nn2)cc1 | 23.1 µM |
| Cc1ccc(C(=O)NCc2ccc(C(=O)Nc3ccc(C)c(C)c3)o2)cc1 | > 50 µM (inactive) |
| CC1(O)CC(=O)c2c(cc3cc(O)cc(O)c3c2O)C1 (configuration not stated) | 0.188 µM |
| COc1cc(NC(=O)Cc2ccccc2)ccc1NC(=O)c1cc2ccccc2o1 | 16.4 µM |
| CCC(=O)Nc1ccc(-c2nc(Cn3cc(C)cn3)c(C)o2)cc1 | > 50 µM (inactive) |
| CC1OC(CC(=O)O)CC23OC12C(=O)c1c(O)cccc1C3=O (configuration not stated) | > 50 µM (inactive) |
| Cc1nc(-c2ccccn2)sc1C(=O)Nc1ccc(C#N)cc1 | > 50 µM (inactive) |
| C[C@@]12c3ccc4c(c3C(=O)c3occ(c31)C(O)C[C@H]2O)CCC4=O (some centres not stated) | > 50 µM (inactive) |
| COc1ccc(NC(=O)C2C3C=CC4(O3)C2C(=O)N(CCc2ccccc2)C4C(=O)NC2CCCCC2)cc1 (configuration not stated) | 26.6 µM |
| Cc1ccc(NC(=O)c2cc(=O)n(C)c3c2c(=O)n(C)c(=O)n3C)c(C)c1 | > 50 µM (inactive) |
| O=C(Cn1c(=O)n(CCC(=O)N2CC=C(c3ccccc3)CC2)c(=O)c2ccccc21)NCc1ccco1 | > 50 µM (inactive) |
| CCC/C=C\C#CC/C=C\CCCCCCCC(=O)O | 1.37 µM |
| Cc1ccc2c(c1)c(=O)c(C(=O)c1ccccc1)cn2CC(=O)Nc1ccc2c(c1)OCCO2 | 14.2 µM |
| COc1ccc(/C=C/c2ccnc3nc(-n4cccc4)nn23)cc1 | > 50 µM (inactive) |
| CN(C)c1ccc(C2CC(c3c(O)n(C)c(=O)[nH]c3=O)=Nc3ccccc3S2)cc1 (configuration not stated) | > 50 µM (inactive) |
| CCN(c1ccc(NC(=O)CSc2nnc(-c3ccccc3)n2-c2ccc(OC)c(OC)c2)cc1)C(C)C | 19.7 µM |
| O=C(Nc1ccc2ccccc2n1)c1ccc(Cl)cc1 | 28.8 µM |

Second part, the compound after the results:

| IC50 | Compound |
| --- | --- |
| > 50 µM (inactive) | COc1ccc(CNC(=O)c2[nH]nc3c2CCc2ccccc2-3)cc1 |
| 39.3 µM | COc1ccccc1NC(=O)c1cc(-c2ccccn2)nc2ccccc12 |
| 22.3 µM | O=C(Cn1c(=O)nc(-c2ccccc2)c2ccccc21)NCc1ccc2c(c1)OCO2 |
| > 50 µM (inactive) | CN(C(=O)c1ccncc1)[C@H]1CC[C@@]2(C)C[C@H](c3ccccc3)C[C@](C)(O2)[C@@H]1O |
| 25.4 µM | Cc1ccccc1OCCSc1nc2ccccc2n1CC(=O)NC1CC1 |
| > 50 µM (inactive) | O=C(COc1cccc(-n2cnnn2)c1)Nc1ccc2c(c1)OCCO2 |
| > 50 µM (inactive) | Cc1ccc2c(c1)-c1c(c(C(=O)N3CCN(c4ccccc4)CC3)nn1C)CS2 |
| 2.45 µM | O=[N+]([O-])c1ccc(N2CCN(c3ncnc4c3[nH]c3ccc(F)cc34)CC2)cc1 |
| 3.22 µM | COC(=O)c1ccc2c(=O)n(CCCCCC(=O)NCc3cccc(Cl)c3)c(=O)[nH]c2c1 |
| > 50 µM (inactive) | COc1ccc(NC(=O)c2nnn(-c3ccccc3)c2C)cc1OC |
| 16.4 µM | COc1ccc(CNC(=O)CN2C(=O)CC(c3ccccc3)=Nc3ccccc32)cc1 |
| > 50 µM (inactive) | O=C(NCc1ccc(F)cc1)C1CCCN(c2cnc3nccnc3c2)C1 (configuration not stated) |
| 4.62 µM | COc1ccc(COc2ccc3c(C)c(CC(=O)N4CC[C@@]5(O)CCCC[C@H]5C4)c(=O)oc3c2)cc1 |
| > 50 µM (inactive) | COc1ccccc1C(=O)N1CCC(S(=O)(=O)c2ccc(-c3ccco3)cc2)CC1 |
| > 50 µM (inactive) | CC(=O)Nc1ccc(Cc2nc(-c3ccc4c(c3)nc(C)c(=O)n4C3CCCC3)no2)cc1 |
| > 50 µM (inactive) | O=c1[nH]c(-c2ccccn2)nc2c1CCN(Cc1cnn(-c3ccccc3)c1)C2 |
| > 50 µM (inactive) | Cc1cccc(-n2cnc(C(=O)NCc3ccc(F)cc3)c2)n1 |
| > 50 µM (inactive) | O=C(NCc1nc(-c2ccc3c(c2)[nH]c(=O)n3C2CCCC2)no1)c1ccccc1 |
| > 50 µM (inactive) | Cc1cccc(C(=O)Nc2ccc3c(c2)nc(CSc2nccc(C)n2)n3C)c1 |
| > 50 µM (inactive) | Cn1c(C(=O)NCc2ccccn2)cc2c(=O)[nH]c3ccccc3c21 |
| > 50 µM (inactive) | CC(=O)N1CCCC(c2nc(C)cc(-c3cc(F)ccc3C(=O)O)n2)C1 (configuration not stated) |
| > 50 µM (inactive) | C=Cc1ccc(Cn2cccc(S(=O)(=O)N3CCCC3)c2=O)cc1 |

| IC50 | Compound |
| --- | --- |
| 44.7 µM | COc1ccccc1CNC(=O)Nc1cccc2ccccc12 |
| > 50 µM (inactive) | CC(C(=O)Nc1ccccc1)n1cnc2nc(N3CCCCC3)ncc2c1=O (configuration not stated) |
| > 50 µM (inactive) | CCOC(=O)Nc1ccc(N2CCn3c(nc4ccccc43)C2)cc1OC |
| 34.5 µM | O=C(CSc1ncnc2c1oc1ccccc12)Nc1ccc2c(c1)OCCO2 |
| 20.9 µM | Cc1cccc(NC(=O)CN2C(=O)COc3cc(S(=O)(=O)N4CCCC4)ccc32)c1C |
| 29.3 µM | Cn1c(CCNC(=O)c2[nH]nc3c2CCc2ccccc2-3)nc2ccccc21 |
| 37.9 µM | Cc1ccc(NC(=O)c2sc3ncn(CC(=O)N4CCN(c5ccccn5)CC4)c(=O)c3c2C)c(Br)c1 |
| 32 µM | O=C(COC(=O)c1n[nH]c2ccccc12)Nc1ccc(N2CCCCC2)cc1 |
| 35.9 µM | O=C(Nc1ncc2c(n1)-c1ccccc1CC2)C1CC1 |
| > 50 µM (inactive) | COc1ccc(NC(=O)C2CCN(c3cncnc3N(C)C)CC2)cc1OC |
| 23.1 µM | O=C(Cn1c(=O)n(Cc2ccc(F)cc2)c(=O)c2sccc21)Nc1cccc(Cl)c1 |
| 16.3 µM | COc1cc(Cl)ccc1C(=O)Nc1cccc(-n2cnnn2)c1C |
| > 50 µM (inactive) | Cc1ccc(S(=O)(=O)c2cnc(SCC(=O)Nc3ccc(Cl)cc3)nc2N)cc1C |
| > 50 µM (inactive) | O=C(/C=C/c1ccc(F)cc1)Nc1ccc2c(c1)OCCO2 |
| 18.5 µM | O=c1[nH]c(C2CCN(S(=O)(=O)c3ccc(S(=O)(=O)NC4CCCCC4)cc3)CC2)nc2c1nnn2Cc1c(Cl)cccc1Cl |
| > 50 µM (inactive) | CS(=O)(=O)NC1CCCN(C(=O)Nc2cccc3ccccc23)C1 (configuration not stated) |
| > 50 µM (inactive) | O=C(Nc1ccc(-c2nnc3n2CCCCC3)cc1)c1ccc2c(c1)OCO2 |
| > 50 µM (inactive) | CCN(C(=O)c1cc2c(s1)-c1ccccc1OC2)c1ccccc1F |
| 36.5 µM | Cc1cccc(S(=O)(=O)N2CCc3nc4ccccc4n3CC2)c1 |
| > 50 µM (inactive) | O=C(Cc1cccs1)Nc1cc(F)c2nc(N3CCOCC3)ccc2c1 |
| 21.3 µM | CCc1ccc(-n2c(=O)c3ccccc3n(CC(=O)NCCC3=CCCCC3)c2=O)cc1 |
| 34.1 µM | Cc1c(CC(=O)N2CCN(c3ncccn3)CC2)c(=O)oc2cc(O)ccc12 |
